Key:
[1] = Viscosity measurement of octreotide acetate physiologically active composition (micron sample viscometer); format: physicochemical; details: 25° C.
Method: The octreotide acetate concentration and the propylene glycol or glycerin concentration were adjusted as shown in Table 3 and Table 4 to prepare a physiologically active composition. The viscosity of the obtained physiologically active composition was measured ten times with a micron sample viscometer (RHEOSENSE INC., Micron Sample-Viscometer/Rheometer-on-a-chip VROCTM), and the mean value was calculated to be shown in Table 3 and Table 4.

[2] = Viscosity imparting test in nonaqueous formulation (polymer compound solubility and viscosity); format: physicochemical; details: 25° C.
Method: With respect to each solvent of propylene glycol and glycerin, polymer compounds shown in Table 5 and Table 6 were added to prepare mixed solutions. Each concentration of the polymer compounds was designed in consideration of the molecular weight and the like. […] Separately, the viscosity of the mixed solution or the solution after the stirring was determined with a micron sample viscometer at 25° C.

Compound | Viscosity Avg. ([1]; octreotide acetate 20 / glycerin 80 % by weight) | Viscosity Avg. ([1]; octreotide acetate 20 / propylene glycol 80 % by weight) | Viscosity Avg. ([1]; octreotide acetate 30 / glycerin 70 % by weight) | Viscosity Avg. ([1]; octreotide acetate 35 / glycerin 65 % by weight) | Viscosity Avg. ([1]; octreotide acetate 40 / glycerin 60 % by weight) | Viscosity Avg. ([1]; octreotide acetate 40 / propylene glycol 60 % by weight) | Viscosity Avg. ([1]; octreotide acetate 50 / glycerin 50 % by weight) | Viscosity Avg. ([1]; octreotide acetate 50 / propylene glycol 50 % by weight) | Viscosity Avg. ([1]; octreotide acetate 60 / glycerin 40 % by weight) | Viscosity Avg. ([1]; octreotide acetate 60 / propylene glycol 40 % by weight) | Viscosity Avg. ([1]; octreotide acetate 70 / propylene glycol 30 % by weight) | Viscosity Avg. ([1]; octreotide acetate 80 / propylene glycol 20 % by weight) | Viscosity ([2]; glycerin, additive concentration 0.5 % by mass) | Viscosity ([2]; propylene glycol, additive concentration 1.0 % by mass)
C[C@@H](O)[C@@H]1NC(=O)[C@H](CCCCN)NC(=O)[C@@H](Cc2c[nH]c3ccccc23)NC(=O)[C@H](Cc2ccccc2)NC(=O)[C@@H](NC(=O)[C@H](N)Cc2ccccc2)CSSC[C@@H](C(=O)N[C@H](CO)[C@@H](C)O)NC1=O [Octreotide acetate] | 2,900 cps | 200 cps | 9,000 cps | 12,000 cps | 15,000 cps | 1,600 cps | 21,000 cps | 5,400 cps | 27,000 cps | 15,000 cps | 45,000 cps | 133,000 cps | – | –
Protamine | – | – | – | – | – | – | – | – | – | – | – | – | 1,442 mPa · s | 53 mPa · s
